Here are results for three compounds from US20170065952A1, “PICKERING EMULSION FORMULATIONS” (THE UNIVERSITY OF BIRMINGHAM, priority 2014, published 2017).

The nature of data set [1]: Release of lipophilic active B (DMP) from O/W emulsion by dialysis into external water, UV-Vis. In kind it is physicochemical. The settings on record: O/W emulsion (tripalmitin particles 2J, WPI), after 2 days of storage. As for the experimental part: Solid lipid particles were prepared according to Example 2J. Tripalmitin matrix contained lipophilic active A (Sudan III) and were stabilised in aqueous dispersion by WPI.
O/W emulsions were prepared according to Example 4. A model lipophilic active B (DMP-dimethyl phthalate) was added to the sunflower oil included phase.
Known quantity of the O/W emulsion (e.g. 10 g) was placed inside a pre-hydrated cellulose tube and dialysed to a known quantity of distilled water (e.g. 100 g), termed “external” water/aqueous phase. An aliquot (ca. 1 mL) of the external water was taken at time intervals, pressed through a syringe filter (0.2 μm pore size) and analysed using UV-Vis spectroscopy (at λ=290 nm). Using previously obtained calibration line and the partitioning (sunflower oil/water) data of DMP, the concentration of the released active B was calculated.

How the values of data set [2] were obtained: Known quantity of the W/O emulsion (e.g. 45 g) was gently placed on the top of a known quantity of distilled water (e.g. 70 g) termed “external” water/aqueous phase. Calibrated conductivity probe was placed in the external aqueous phase and readings were taken on daily intervals.
(§1) Solid lipid particles were prepared according to Example 2C. Tripalmitin particles contained the lipophilic active (Sudan III) and were stabilised in the aqueous dispersion by Tween™ 20. After preparation the excess surfactant was dialysed off to distilled water.
W/O emulsions were prepared according to Example 3C, 3D and 3E. Hydrophilic active (NaCl) was added to the aqueous included phase and sunflower or silicone or mineral oils were used as the continuous phase.
The release of NaCl was measured as per Example 5.

A short description of data set [3]: Release of lipophilic active (Sudan III) from W/O emulsion into external oil phase, UV-Vis. In kind it is physicochemical. The following applies: W/O emulsion Example 3C (tripalmitin particles 2C, Tween 20, sunflower oil continuous phase); burst release. As for the experimental part:
as §1

Data set [4] can be described thus: Release of lipophilic active A (Sudan III) from O/W emulsion into external oil phase, UV-Vis. The following applies: O/W emulsion (tripalmitin particles 2J, WPI, sunflower oil), observation period of 4 days. In kind it is physicochemical.
Experimental: Known quantity of the O/W emulsion (e.g. 40 g) was placed in the beaker and gently topped up with a known quantity of sunflower oil (e.g. 50 g), termed “external” oil phase. An aliquot (ca. 1 mL) of the external oil phase was taken at time intervals, pressed through a syringe filter (0.2 μm pore size) and analysed using UV-Vis spectroscopy (at λ=510 nm). Using previously obtained calibration line, the concentration of the released active A was calculated.

`COC(=O)c1ccccc1C(=O)OC` [DMP, dimethyl phthalate]: in data set [1], the “release of active B from the dispersed sunflower oil phase” value is reported as 100%.

On to `[Cl-].[Na+]` [NaCl], for which the “release of hydrophilic active to external water phase” value in data set [2] (W/O emulsion Example 3C, sunflower oil, over 17 days) is “very small”. Moreover, the “release of hydrophilic active upon heating” value in data set [2] (W/O emulsion, heating to 40° C., fat crystals at interface melt) is reported as “all dispersed water phase with NaCl is delivered to the external water phase”. Also, the “release of the internal water phase with NaCl” value in data set [2] (water-in-mineral-oil emulsions (Example 3D), partially sintered particles) was “lower than for the non-sintered silicone oil emulsions and higher than the sintered sunflower oil emulsions”. The “release of NaCl to external water phase” value in data set [2] (water-in-silicone-oil emulsions (Example 3E), non-sintered particles) is recorded as “Relatively high release”.

For the compound `Oc1ccc2ccccc2c1N=Nc1ccc(N=Nc2ccccc2)cc1` [Sudan III], the “time of storage to complete release of lipophilic active” value in data set [3] is listed as at most 10 h. Further, the “release of active A from the lipid particles” value in data set [4] is “below 1%”.
